Experimental data published in US4868114A, “Method for elevating glutathione levels” (Regents of the University of Minnesota, priority 1989, dated 1989).

Columns and labels:
rat hepatocytes [1] = experiment: Inhibitory effect of buthionine sulfoximine (BSO) on GSH elevation elicited by L-cysteine prodrugs in rat hepatocytes; format: cell-based; details: for [GSH] ± SE: rat hepatocytes pre-exposed to BSO 0.2 mM, 4 hr; for [GSH] Rel. to Controls: rat hepatocytes, BSO 0.2 mM, 240 min
Description: (§1) Rat hepatocytes were isolated following the methods of P. O. Seglen, Exper. […] After final plating, the hepatocytes were maintained in culture for 24 hr prior to use. Only primary cultures were used throughout the studies. The hepatocytes were incubated with the cysteine prodrugs for a 4-hr period, and after removal of media by aspiration, the cells were rinsed with cold phosphate-buffered saline and deproteinized with 5% sulfosalicylic acid. […] For the inhibition studies with BSO, the cells were pre-exposed to BSO (0.20 mM) before treatment with the L-cysteine prodrugs.

[2] = system: acetaminophen-induced hepatotoxicity; experiment: Protection against acetaminophen-induced hepatotoxicity in mice; format: in vivo; details: prodrug 2.45 mmole/kg ip 30 min later; for Survival (48 hr) (%) / Survival (48 hr) (Number): LD90 acetaminophen 750 mg/kg ip; for Survival (48 hr) (Number): survivors/total; for Number of Animals with necrosis 0 / Number of Animals with necrosis 1+ / Number of Animals with necrosis 2+ / Number of Animals with necrosis 3+ / Number of Animals with necrosis 4+: LD90 acetaminophen ip, liver histology, Mitchell rating
Description: Compounds 1a through 1h were evaluated in a mouse model for their ability to protect against the hepatotoxic action of acetaminophen. The experimental protocol involved the administration of an LD90 dose of acetaminophen, followed 30 min. later by the prodrug as potential protective agent. Toxicity was assessed based on overall survival data at 48 hrs, as well as on histological criteria of hepatocellular damage using the rating system of J. R. Mitchell et al., J. Pharmacol. Exp. Ther., 187, 185 (1973).
The prodrugs of L-cysteine were examined for their ability to protect against acetaminophen-induced hepatotoxicity in mice essentially as described by H. T. Nagasawa et al., J. Med. Chem., 25, 489 (1982). Male Swiss-Webster mice (19 to 31 g) were fasted overnight but given free access to water. An LD90 dose of acetaminophen (750 mg/kg, 4.97 mmol/kg, ip) was then administered, followed 30 min later by a 2.45 mmole/kg ip dose of the L-cysteine prodrug. All injection solutions were freshly prepared in sterile water, except where solubility problems required the use of sterile 0.1N aqueous NaHCO3 or a slurry of the prodrug in 2% aqueous carboxymethylcellulose (CMC). The animals were then given food and water ad libitum and were observed over a 48-hr period.
Represenative sections from the central lobe of the liver were obtained from those animals found dead at 12, 24 and 48 hr. Survivors at 48 hr were sacrificed by cervical dislocation and the liver sections were similarly excised and sectioned. All specimens were fixed on 10% buffered formalin and in Form-a-Less (PMP, Inc., San Diego, CA) and stained with hematoxylin and eosin. The extent of hepatic necrosis was evaluated histologically by an investigator who had no knowledge of the experimental protocols or sample identity.

rat hepatocytes [3] = experiment: Stimulation of glutathione (GSH) biosynthesis in isolated rat hepatocytes by L-cysteine prodrugs; format: cell-based; details: for [GSH] ± SE: control 35.4 ± 0.78
Description: as §1

[4] = system: heptatotoxic dosages of acetaminophen; details: previous studies (Nagasawa 1984; Meister US 4,335,210); cited from earlier work
[5] = Hepatocyte, rat hepatocytes, prodrug 1.0 mM, 4 hr incubation, read-out: [GSH] Rel. to Controls
[6] = rat hepatocytes, prodrug 1.0 mM, 4 hr incubation

| SMILES | [GSH] ± SE (rat hepatocytes [1]; prodrug 1.0 mM) [nmol/10^6 cells] | [GSH] Rel. to Controls (rat hepatocytes [1]; prodrug 1.0 mM) | Survival (48 hr) (%) [2] [%] | Survival (48 hr) (Number) [2] | Number of Animals with necrosis 0 [2] | Number of Animals with necrosis 1+ [2] | Number of Animals with necrosis 2+ [2] | Number of Animals with necrosis 3+ [2] | Number of Animals with necrosis 4+ [2] | fold induction at 1000 µM (rat hepatocytes [3]; [5]) | [GSH] ± SE (rat hepatocytes [3]; [6]) [nmol/10^6 cells] | protection of mice from hepatotoxic dosages of acetaminophen [4] | [GSH] Rel. to Controls (rat hepatocytes [3]; [6]) | [GSH] ± SE (rat hepatocytes [1]; 2.5 mM) [nmol/10^6 cells] | [GSH] Rel. to Controls (rat hepatocytes [1]; 2.5 mM) | fold induction at 2500 µM (rat hepatocytes [3]; Rattus norvegicus, Hepatocyte, 4 h, read-out: [GSH] Rel. to Controls) | [GSH] ± SE (rat hepatocytes [3]; rat hepatocytes, 2.5 mM, 4 hr incubation) [nmol/10^6 cells] | raised GSH levels by (rat hepatocytes [3]; rat hepatocytes, 2.5 times the concentration of the thiazolidine prodrugs) [%] |
| --- | --- | --- | --- | --- | --- | --- | --- | --- | --- | --- | --- | --- | --- | --- | --- | --- | --- | --- |
| O=C(O)[C@@H]1CSC([C@@H](O)[C@H](O)[C@H](O)CO)N1 (mixture of isomers) [AraCys, 2(R,S)-D-arabino-1',2',3',4'-Tetrahydroxybutylthiazolidine-4(R)-carboxylic Acid] | 19.5 ± 3.75 | 0.6 | 40 | 4/10 | 0 | 1 | 2 | 0 | 7 | 1.2 | 42.9 ± 2.17 |  |  |  |  |  |  |  |
| CC1N[C@H](C(=O)O)CS1 (stereo partly drawn) [2(R,S)-methylthiazolidine-4R-carboxylate] |  |  |  |  |  |  |  |  |  |  |  | can protect mice |  |  |  |  |  |  |
| CCCCCC1N[C@H](C(=O)O)CS1 (stereo partly drawn) [2(R,S)-n-pentyl] |  |  |  |  |  |  |  |  |  |  |  | can protect mice |  |  |  |  |  |  |
| CCCC1N[C@H](C(=O)O)CS1 (stereo partly drawn) [2(R,S)-n-propyl-] |  |  |  |  |  |  |  |  |  |  |  | can protect mice |  |  |  |  |  |  |
| O=C(O)[C@@H]1CSC([C@H](O)[C@@H](O)[C@@H](O)[C@H](O)CO)N1 (stereo partly drawn) [GalCys, 2(R,S)-D-galacto-1',2',3',4',5'-Pentahydroxypentylthiazolidine-4(R)-carboxylic Acid] | 23.2 ± 2.56 | 0.7 | 60 | 6/10 | 1 | 3 | 2 | 0 | 4 | 1.6 | 58.0 ± 2.00 |  |  |  |  |  |  |  |
| O=C(O)[C@@H]1CSC([C@H](O)[C@@H](O)[C@H](O)[C@H](O)CO)N1 (stereo partly drawn) [GlcCys, 2(R,S)-D-gluco-1',2',3',4',5'-Pentahydroxypentylthiazolidine-4(R)-carboxylic Acid] | 25.4 ± 0.99 | 0.7 | 30 | 3/10 | 0 | 2 | 0 | 1 | 7 | 2.1 | 75.2 ± 2.15 |  | over twice |  |  |  |  |  |
| O=C(O)[C@@H]1CSC([C@H](O)CO)N1 (stereo partly drawn) [GlycCys, 2(R,S)-D-glycero-1',2'-Dihydroxyethylthiazolidine-4(R)carboxylic Acid] | 18.3 ± 6.41 | 0.5 | 30 | 3/10 | 0 | 0 | 1 | 2 | 7 | 1.3 | 46.1 ± 1.10 |  |  |  |  |  |  |  |
| O=C1N[C@H](C(=O)O)CS1 [L-2-oxothiazolidine-4-carboxylate] |  |  |  |  |  |  |  |  |  |  |  | can protect mice |  |  |  |  |  |  |
| O=C(O)[C@@H]1CSC([C@@H](O)[C@@H](O)[C@H](O)CO)N1 (stereo partly drawn) [LyxCys, 2(R,S)-D-lyxo-1',2',3',4'-Tetrahydroxybutylthiazolidine-4(R)-carboxylic Acid] | 22.4 ± 1.98 | 0.6 | 30 | 3/10 | 0 | 0 | 0 | 1 | 9 | 1.3 | 45.9 ± 1.95 |  |  |  |  |  |  |  |
| O=C(O)[C@@H]1CSC([C@@H](O)[C@@H](O)[C@H](O)[C@H](O)CO)N1 (stereo partly drawn) [ManCys, 2(R,S)-D-manno-1',2',3',4',5'-Pentahydroxypentylthiazolidine-4(R)-carboxylic Acid] | 18.9 ± 1.87 | 0.5 | 40 | 4/10 | 3 | 0 | 1 | 0 | 6 | 1.6 | 57.8 ± 0.87 |  |  |  |  |  |  |  |
| CC(=O)N[C@@H](CS)C(=O)O [NAC, N-Acetyl-L-cysteine, reference compound] |  |  | 94 | 17/18 | 13 | 3 | 0 | 1 | 1 |  |  | can protect mice |  | 25.5 ± 1.59 | 0.7 | 1.3 | 45.8 ± 1.27 | 30 |
| O=C(O)[C@@H]1CSC([C@H](O)[C@H](O)[C@H](O)CO)N1 (stereo partly drawn) [RibCys, 2(R,S)-D-ribo-1',2',3',4'-Tetrahydroxybutylthiazolidine-4(R)-carboxylic Acid] | 16.2 ± 3.60 | 0.5 | 100 | 12/12 | 4 | 2 | 6 | 0 | 0 | 1.7 | 61.2 ± 1.52 |  |  |  |  |  |  |  |
| O=C(O)[C@@H]1CSC([C@H](O)[C@@H](O)[C@H](O)CO)N1 (stereo partly drawn) [XylCys, 2(R,S)-D-xylo-1',2',3',4'-Tetrahydroxybutylthiazolidine-4(R)-carboxylic Acid] | 22.6 ± 1.84 | 0.8 | 60 | 6/10 | 3 | 2 | 0 | 0 | 5 | 1.6 | 58.3 ± 0.99 |  |  |  |  |  |  |  |
